According to PubChem BioAssay AID216 (DTP/NCI, 2004):
Where “and” joins values, the source holds several entries; their conditions need not be identical. Equal values may be shown once. Toxic doses and inconclusive results are not listed.

Test system: BDF1 mice, P288 leukemia ip, survival T/C
Assay: NCI In Vivo Anticancer Drug Screen. Data for tumor model P288 Lymphocytic Leukemia (intraperitoneal) in B6D2F1 (BDF1) mice
Conditions: endpoint: survival time, mean or median, higher = longer survival
Experimental: The antitumor activity of compounds was measured in mice bearing transplantable tumors. Survival or tumor size were measured and the results are expressed as the measurement made in the treated group (T) divided by the measurement made in the vehicle treated control group (C). The tumor model used in this assay is P288 Lymphocytic Leukemia (intraperitoneal) in B6D2F1 (BDF1) mice

[1] = dose: 6.0 mg/kg/injection, schedule: Q01DX010 (ip), vehicle: saline
[2] = dose: 6.25 mg/kg/injection, schedule: Q01DX Z (ip), vehicle: carboxymethylcellulose (CMC)
[3] = dose: 12.0 mg/kg/injection, schedule: Q01DX010 (ip), vehicle: saline
[4] = dose: 12.5 mg/kg/injection, schedule: Q01DX Z (ip), vehicle: carboxymethylcellulose (CMC)
[5] = dose: 25.0 mg/kg/injection, schedule: Q01DX Z (ip), vehicle: carboxymethylcellulose (CMC)
[6] = dose: 62.5 mg/kg/injection, schedule: Q01DX010 (ip), vehicle: saline
[7] = dose: 250.0 mg/kg/injection, schedule: Q01DX010 (ip), vehicle: saline
[8] = dose: 8.0 mg/kg/injection, schedule: Q01DX010 (ip), vehicle: saline
[9] = dose: 25.0 mg/kg/injection, schedule: Q01DX010 (ip), vehicle: saline
[10] = dose: 50.0 mg/kg/injection, schedule: Q01DX010 (ip), vehicle: saline
[11] = dose: 100.0 mg/kg/injection, schedule: Q01DX010 (ip), vehicle: saline
[12] = dose: 200.0 mg/kg/injection, schedule: Q01DX010 (ip), vehicle: saline
[13] = dose: 18.0 mg/kg/injection, schedule: Q01DX010 (ip), vehicle: saline

Nc1ncnc2[nH]ncc12
T/C (dose: 1.5 mg/kg/injection, schedule: Q01DX010 (ip), vehicle: saline): 93 % of control and 100 % of control | T/C (dose: 3.0 mg/kg/injection, schedule: Q01DX010 (ip), vehicle: saline): 107 % of control and 100 % of control | T/C [1]: 100 % of control | T/C [2]: 92 % of control | T/C [3]: 112 % of control | T/C [4]: 94 % of control | T/C [5]: 94 % of control

CC(=O)O[C@]1(C(C)=O)CC[C@H]2[C@@H]3C[C@H](C)C4=CC(=O)C=C[C@]4(C)[C@@]3(F)[C@@H](O)C[C@@]21C
T/C (dose: 2.5 mg/kg/injection, schedule: Q01DX Z (sc), vehicle: steriod suspending solution): 95 % of control | T/C (dose: 5.0 mg/kg/injection, schedule: Q01DX Z (sc), vehicle: steriod suspending solution): 97 % of control | T/C (dose: 10.0 mg/kg/injection, schedule: Q01DX Z (sc), vehicle: steriod suspending solution): 101 % of control | T/C (dose: 12.5 mg/kg/injection, schedule: Q01DX010 (sc), vehicle: steriod suspending solution): 100 % of control | T/C (dose: 20.0 mg/kg/injection, schedule: Q01DX Z (sc), vehicle: steriod suspending solution): 107 % of control | T/C (dose: 25.0 mg/kg/injection, schedule: Q01DX010 (sc), vehicle: steriod suspending solution): 106 % of control | T/C (dose: 40.0 mg/kg/injection, schedule: Q01DX Z (sc), vehicle: steriod suspending solution): 118 % of control | T/C (dose: 50.0 mg/kg/injection, schedule: Q01DX010 (sc), vehicle: steriod suspending solution): 112 % of control | T/C (dose: 80.0 mg/kg/injection, schedule: Q01DX Z (sc), vehicle: steriod suspending solution): 100 % of control | T/C (dose: 100.0 mg/kg/injection, schedule: Q01DX010 (sc), vehicle: steriod suspending solution): 93 % of control | T/C (dose: 160.0 mg/kg/injection, schedule: Q01DX Z (sc), vehicle: steriod suspending solution): 90 % of control

O=CN(O)CC(=O)O
T/C (dose: 31.25 mg/kg/injection, schedule: Q01DX Z (ip), vehicle: carboxymethylcellulose (CMC)): 110 % of control | T/C [6]: 100 % of control | T/C (dose: 62.5 mg/kg/injection, schedule: Q01DX Z (ip), vehicle: carboxymethylcellulose (CMC)): 104 % of control | T/C (dose: 125.0 mg/kg/injection, schedule: Q01DX010 (ip), vehicle: saline): 100 % of control | T/C (dose: 125.0 mg/kg/injection, schedule: Q01DX Z (ip), vehicle: carboxymethylcellulose (CMC)): 100 % of control | T/C [7]: 100 % of control | T/C (dose: 250.0 mg/kg/injection, schedule: Q01DX Z (ip), vehicle: carboxymethylcellulose (CMC)): 110 % of control | T/C (dose: 500.0 mg/kg/injection, schedule: Q01DX010 (ip), vehicle: saline): 88 % of control | T/C (dose: 500.0 mg/kg/injection, schedule: Q01DX Z (ip), vehicle: carboxymethylcellulose (CMC)): 106 % of control and 115 % of control | T/C (dose: 1000.0 mg/kg/injection, schedule: Q01DX Z (ip), vehicle: carboxymethylcellulose (CMC)): 100 % of control

O=C(Nc1ccc(NC2=NCCN2)cc1)c1ccc(C(=O)Nc2ccc(NC3=NCCN3)cc2)cc1
T/C (dose: 0.5 mg/kg/injection, schedule: Q01DX Z (ip), vehicle: saline): 97 % of control | T/C (dose: 1.0 mg/kg/injection, schedule: Q01DX Z (ip), vehicle: saline): 109 % of control | T/C (dose: 2.0 mg/kg/injection, schedule: Q01DX010 (ip), vehicle: saline): 157 % of control and 184 % of control | T/C (dose: 2.0 mg/kg/injection, schedule: Q01DX Z (ip), vehicle: saline): 114 % of control | T/C (dose: 4.0 mg/kg/injection, schedule: Q01DX010 (ip), vehicle: saline): 189 % of control and 194 % of control | T/C (dose: 4.0 mg/kg/injection, schedule: Q01DX Z (ip), vehicle: saline): 152 % of control | T/C [8]: 247 % of control and 284 % of control | T/C (dose: 8.0 mg/kg/injection, schedule: Q01DX Z (ip), vehicle: saline): 203 % of control | T/C (dose: 16.0 mg/kg/injection, schedule: Q01DX010 (ip), vehicle: saline): 115 % of control | T/C (dose: 32.0 mg/kg/injection, schedule: Q01DX Z (ip), vehicle: saline): 105 % of control

CSc1ncnc2nc[nH]c12
T/C [2]: 105 % of control | T/C [4]: 101 % of control | T/C [9]: 90 % of control | T/C [5]: 101 % of control | T/C [10]: 86 % of control and 90 % of control | T/C (dose: 50.0 mg/kg/injection, schedule: Q01DX Z (ip), vehicle: carboxymethylcellulose (CMC)): 113 % of control and 88 % of control | T/C [11]: 100 % of control | T/C [12]: 90 % of control and 100 % of control

CC(=O)Nc1ccc(/C=N/Nc2ccc([N+](=O)[O-])cn2)cc1
T/C (dose: 31.3 mg/kg/injection, schedule: Q01DX010 (ip), vehicle: saline): 89 % of control | T/C [6]: 89 % of control | T/C [7]: 89 % of control

O=C(Nc1ccc(C2=NCCN2)cc1)c1ccc(C(=O)Nc2ccc(C3=NCCN3)cc2)c([N+](=O)[O-])c1
T/C [1]: 155 % of control and 175 % of control | T/C [8]: 188 % of control and 262 % of control | T/C [3]: 333 % of control and 375 % of control | T/C [13]: 187 % of control

CN(C)c1ccc(/C=C\c2ccnc3ccccc23)cc1
T/C (dose: 6.25 mg/kg/injection, schedule: Q01DX Z (ip), vehicle: water): 98 % of control | T/C [3]: 88 % of control | T/C (dose: 12.5 mg/kg/injection, schedule: Q01DX Z (ip), vehicle: water): 98 % of control | T/C [13]: 88 % of control | T/C (dose: 25.0 mg/kg/injection, schedule: Q01DX Z (ip), vehicle: water): 100 % of control | T/C (dose: 27.0 mg/kg/injection, schedule: Q01DX010 (ip), vehicle: saline): 94 % of control | T/C (dose: 40.0 mg/kg/injection, schedule: Q01DX010 (ip), vehicle: saline): 88 % of control | T/C (dose: 50.0 mg/kg/injection, schedule: Q01DX Z (ip), vehicle: water): 105 % of control | T/C (dose: 100.0 mg/kg/injection, schedule: Q01DX Z (ip), vehicle: water): 108 % of control | T/C (dose: 200.0 mg/kg/injection, schedule: Q01DX Z (ip), vehicle: water): 90 % of control

CC[C@@H](c1ccc(O)cc1)[C@@H](CC)c1ccc(O)cc1
T/C (dose: 31.0 mg/kg/injection, schedule: Q01DX Z (sc), vehicle: steriod suspending solution): 98 % of control | T/C (dose: 62.5 mg/kg/injection, schedule: Q01DX Z (sc), vehicle: steriod suspending solution): 98 % of control | T/C (dose: 125.0 mg/kg/injection, schedule: Q01DX Z (sc), vehicle: steriod suspending solution): 115 % of control and 97 % of control and 100 % of control | T/C (dose: 250.0 mg/kg/injection, schedule: Q01DX Z (sc), vehicle: steriod suspending solution): 93 % of control and 98 % of control | T/C (dose: 500.0 mg/kg/injection, schedule: Q01DX Z (sc), vehicle: steriod suspending solution): 107 % of control and 95 % of control | T/C (dose: 1000.0 mg/kg/injection, schedule: Q01DX Z (sc), vehicle: steriod suspending solution): 93 % of control

CS(=O)(=O)OCC(O)C(O)C(O)C(O)COS(C)(=O)=O (centres undefined)
T/C [9]: 100 % of control | T/C [10]: 114 % of control and 94 % of control | T/C [11]: 111 % of control and 100 % of control | T/C [12]: 105 % of control and 100 % of control | T/C (dose: 400.0 mg/kg/injection, schedule: Q01DX010 (ip), vehicle: saline): 114 % of control
